# Where two headings read alike, the source gives them in different places. Starred links: 1 amine or outer side, 2 acyl side, 3 side chain; linkers in the order of their positions; H or OH if unused. Non-standard residues stand in square brackets, D forms with d. Residues, ends and D or L forms follow the SMILES beside them. X4 = O=C(O)CC[C@@H](CN[*:1])C(=O)[*:2]
# Tests used:
# Type in all cases: cell-based
# PTHR1 = biological target: T1, PTHR1 (Homo sapiens, UniProt Q03431); assay: PTHR1 activation, cAMP production (GloSensor) in HEK293 cells; design: expressed in transfected cells; conditions: for PTHR1 Activation: Derivative EC50/PTH EC50: normalized to EC50 of PTH(1-34)-NH2 ([…]), cAMP production
# T1 sequence (Q03431 27-593): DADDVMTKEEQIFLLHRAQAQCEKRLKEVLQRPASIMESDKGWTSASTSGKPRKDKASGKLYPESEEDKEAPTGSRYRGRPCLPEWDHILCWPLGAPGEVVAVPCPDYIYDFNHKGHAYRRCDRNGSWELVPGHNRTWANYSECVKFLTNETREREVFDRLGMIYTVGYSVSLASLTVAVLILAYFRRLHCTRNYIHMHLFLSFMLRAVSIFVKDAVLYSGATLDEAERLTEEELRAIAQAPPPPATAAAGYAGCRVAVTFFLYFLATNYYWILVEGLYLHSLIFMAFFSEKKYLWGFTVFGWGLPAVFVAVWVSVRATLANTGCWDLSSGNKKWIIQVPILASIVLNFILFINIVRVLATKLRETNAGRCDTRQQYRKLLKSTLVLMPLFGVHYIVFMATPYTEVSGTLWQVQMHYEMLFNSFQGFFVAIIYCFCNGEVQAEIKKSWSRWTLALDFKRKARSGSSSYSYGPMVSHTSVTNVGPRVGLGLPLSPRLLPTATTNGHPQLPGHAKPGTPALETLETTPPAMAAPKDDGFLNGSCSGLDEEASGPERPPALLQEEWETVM
# From the text: The assays employ HEK-293 cells that have been engineered to express the appropriate receptor. GloSensor-based detection of cAMP provides a read-out of receptor activation.
# (§1) For PTHR1 activation and all the binding data, data represent mean±s.e.m from three independent measurements; For PTHR2 activation, data represent mean±s.e.m from four independent measurements. Curves were fit to the data using a four-parameter sigmoidal dose-response equation.
# For cAMP dose-response assays, monolayers of confluent HEK 293 cells were pre-incubated with buffer containing d-luciferin (0.5 mM) in 96 well plates at room temperature until a stable baseline level of luminescence was established (30 min). Varying concentrations of agonist were then added, and the time course of luminescence response was recorded using a Perkin Elmer plate reader following α/β-peptide addition.
# PTHR1 and PTHR2 = assay: Tolerance pattern of β residues for PTHR1 and PTHR2 activation; design: key: “*” denotes potent PTHR1-selective agonism; “#” denotes potent PTHR2-selective agonism; “*#” denotes potent agonism of both PTHR1 and PTHR2; conditions: PTHR1 vs PTHR2 agonism
# From the text: Enhanced selectivity via double α→β replacement.
# PTHR2 = PTHR2 (Homo sapiens, UniProt P49190); assay: PTHR2 activation, cAMP production (GloSensor) in HEK293 cells; design: expressed in transfected cells; key to PTHR2 Activation: Derivative EC50/PTH EC50: *** denotes poor tolerance of β amino acid for PTHR2 activation; conditions: for EC50: HEK-293 cells, GloSensor cAMP, read-out: EC50 (nM) of PTHR2 Activation; for PTHR2 Activation: Derivative EC50/PTH EC50: normalized to EC50 of PTH(1-34)-NH2 ([…] printed), cAMP production
# From the text: The assays employ HEK-293 cells that have been engineered to express the appropriate receptor. GloSensor-based detection of cAMP provides a read-out of receptor activation. […] (Carter, P. H. et al. Actions of the Small Molecule Ligands SW106 and AH-3960 on the Type-1 Parathyroid Hormone Receptor. Molecular Endocrinology 29, 307-321 (2015).)
# as §1, with “FIGS. 10A and 10B depict dose-response curves of PTHR1 activation (FIG. 10A) and PTHR2 activation (FIG. 10B) in HEK293 cells stably expressing PTHR1 or PTHR2. For PTHR1” for “For PTHR1”
# [1] = HEK-293 cells, GloSensor cAMP, read-out: EC50 (nM) of PTHR1 Activation
# [2] = Table 8, hPTHR1, read-out: PTHR1 EC50
# Sequence of PTHR2 (P49190 25-550): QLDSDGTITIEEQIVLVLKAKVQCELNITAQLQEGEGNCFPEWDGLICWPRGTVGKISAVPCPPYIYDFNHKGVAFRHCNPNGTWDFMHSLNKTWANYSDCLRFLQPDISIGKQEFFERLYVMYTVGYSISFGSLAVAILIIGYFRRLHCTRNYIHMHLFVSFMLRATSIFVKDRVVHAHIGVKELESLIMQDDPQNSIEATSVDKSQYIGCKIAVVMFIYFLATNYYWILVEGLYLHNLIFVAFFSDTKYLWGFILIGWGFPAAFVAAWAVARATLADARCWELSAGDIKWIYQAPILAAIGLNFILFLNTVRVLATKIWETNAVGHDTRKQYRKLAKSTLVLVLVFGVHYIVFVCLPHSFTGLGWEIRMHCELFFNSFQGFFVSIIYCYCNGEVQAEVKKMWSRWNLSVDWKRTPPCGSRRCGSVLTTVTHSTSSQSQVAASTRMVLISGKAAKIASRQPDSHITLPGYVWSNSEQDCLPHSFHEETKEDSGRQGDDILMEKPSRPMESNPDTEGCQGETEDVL
Compound,EC50 (PTHR1; [1]) [nM],PTHR1 Activation: Derivative EC50/PTH EC50 (PTHR1),EC50 (PTHR1; [2]) [nM],Tolerance Pattern of β AA (PTHR1 and PTHR2),EC50 (PTHR2) [nM],PTHR2 Activation: Derivative EC50/PTH EC50 (PTHR2)
CC[C@H](C)[C@H](NC(=O)[C@H](CCC(=O)O)NC(=O)[C@H](CO)NC(=O)[C@@H](CNC(=O)[C@@H](N)CO)C(C)C)C(=O)N[C@@H](CCC(N)=O)C(=O)N[C@@H](CC(C)C)C(=O)N[C@@H](CCSC)C(=O)N[C@@H](Cc1c[nH]cn1)C(=O)N[C@@H](CC(N)=O)C(=O)N[C@@H](CC(C)C)C(=O)NCC(=O)N[C@@H](CCCCN)C(=O)N[C@@H](Cc1c[nH]cn1)C(=O)N[C@@H](CC(C)C)C(=O)N[C@@H](CC(N)=O)C(=O)N[C@@H](CO)C(=O)N[C@@H](CCSC)C(=O)N[C@@H](CCC(=O)O)C(=O)N[C@@H](CCCNC(=N)N)C(=O)N[C@H](C(=O)N[C@@H](CCC(=O)O)C(=O)N[C@@H](Cc1c[nH]c2ccccc12)C(=O)N[C@@H](CC(C)C)C(=O)N[C@@H](CCCNC(=N)N)C(=O)N[C@@H](CCCCN)C(=O)N[C@@H](CCCCN)C(=O)N[C@@H](CC(C)C)C(=O)N[C@@H](CCC(N)=O)C(=O)N[C@@H](CC(=O)O)C(=O)N[C@H](C(=O)N[C@@H](Cc1c[nH]cn1)C(=O)N[C@@H](CC(N)=O)C(=O)N[C@@H](Cc1ccccc1)C(N)=O)C(C)C)C(C)C [SEQ. ID. NO: 23],4.47 ± 0.47,11.76,,#,,
CC[C@H](C)[C@H](NC(=O)[C@H](CCC(=O)O)NC(=O)[C@H](CO)NC(=O)[C@H](CNC(=O)[C@@H](N)CO)C(C)C)C(=O)N[C@@H](CCC(N)=O)C(=O)N[C@@H](CC(C)C)C(=O)N[C@@H](CCSC)C(=O)N[C@@H](Cc1c[nH]cn1)C(=O)N[C@@H](CC(N)=O)C(=O)N[C@@H](CC(C)C)C(=O)NCC(=O)N[C@@H](CCCCN)C(=O)N[C@@H](Cc1c[nH]cn1)C(=O)N[C@@H](CC(C)C)C(=O)N[C@@H](CC(N)=O)C(=O)N[C@@H](CO)C(=O)N[C@@H](CCSC)C(=O)N[C@@H](CCC(=O)O)C(=O)N[C@@H](CCCNC(=N)N)C(=O)N[C@H](C(=O)N[C@@H](CCC(=O)O)C(=O)N[C@@H](Cc1c[nH]c2ccccc12)C(=O)N[C@@H](CC(C)C)C(=O)N[C@@H](CCCNC(=N)N)C(=O)N[C@@H](CCCCN)C(=O)N[C@@H](CCCCN)C(=O)N[C@@H](CC(C)C)C(=O)N[C@@H](CCC(N)=O)C(=O)N[C@@H](CC(=O)O)C(=O)N[C@H](C(=O)N[C@@H](Cc1c[nH]cn1)C(=O)N[C@@H](CC(N)=O)C(=O)N[C@@H](Cc1ccccc1)C(N)=O)C(C)C)C(C)C [SEQ. ID. NO: 31],6.97 ± 1,18.34,4.72 ± 1.04,,4.72 ± 1.04,5.43
CC[C@H](C)[C@H](NC(=O)[C@H](CCC(=O)O)NC(=O)[C@H](CO)NC(=O)C[C@@H](NC(=O)[C@@H](N)CO)C(C)C)C(=O)N[C@@H](CCC(N)=O)C(=O)N[C@@H](CC(C)C)C(=O)N[C@@H](CCSC)C(=O)N[C@@H](Cc1c[nH]cn1)C(=O)N[C@@H](CC(N)=O)C(=O)N[C@@H](CC(C)C)C(=O)NCC(=O)N[C@@H](CCCCN)C(=O)N[C@@H](Cc1c[nH]cn1)C(=O)N[C@@H](CC(C)C)C(=O)N[C@@H](CC(N)=O)C(=O)N[C@@H](CO)C(=O)N[C@@H](CCSC)C(=O)N[C@@H](CCC(=O)O)C(=O)N[C@@H](CCCNC(=N)N)C(=O)N[C@H](C(=O)N[C@@H](CCC(=O)O)C(=O)N[C@@H](Cc1c[nH]c2ccccc12)C(=O)N[C@@H](CC(C)C)C(=O)N[C@@H](CCCNC(=N)N)C(=O)N[C@@H](CCCCN)C(=O)N[C@@H](CCCCN)C(=O)N[C@@H](CC(C)C)C(=O)N[C@@H](CCC(N)=O)C(=O)N[C@@H](CC(=O)O)C(=O)N[C@H](C(=O)N[C@@H](Cc1c[nH]cn1)C(=O)N[C@@H](CC(N)=O)C(=O)N[C@@H](Cc1ccccc1)C(N)=O)C(C)C)C(C)C [SEQ. ID. NO: 39],,,,*#,,
CC[C@H](C)[C@H](NC(=O)[C@H](CCC(=O)O)NC(=O)C[C@H](CO)NC(=O)[C@@H](NC(=O)[C@@H](N)CO)C(C)C)C(=O)N[C@@H](CCC(N)=O)C(=O)N[C@@H](CC(C)C)C(=O)N[C@@H](CCSC)C(=O)N[C@@H](Cc1c[nH]cn1)C(=O)N[C@@H](CC(N)=O)C(=O)N[C@@H](CC(C)C)C(=O)NCC(=O)N[C@@H](CCCCN)C(=O)N[C@@H](Cc1c[nH]cn1)C(=O)N[C@@H](CC(C)C)C(=O)N[C@@H](CC(N)=O)C(=O)N[C@@H](CO)C(=O)N[C@@H](CCSC)C(=O)N[C@@H](CCC(=O)O)C(=O)N[C@@H](CCCNC(=N)N)C(=O)N[C@H](C(=O)N[C@@H](CCC(=O)O)C(=O)N[C@@H](Cc1c[nH]c2ccccc12)C(=O)N[C@@H](CC(C)C)C(=O)N[C@@H](CCCNC(=N)N)C(=O)N[C@@H](CCCCN)C(=O)N[C@@H](CCCCN)C(=O)N[C@@H](CC(C)C)C(=O)N[C@@H](CCC(N)=O)C(=O)N[C@@H](CC(=O)O)C(=O)N[C@H](C(=O)N[C@@H](Cc1c[nH]cn1)C(=O)N[C@@H](CC(N)=O)C(=O)N[C@@H](Cc1ccccc1)C(N)=O)C(C)C)C(C)C [SEQ. ID. NO: 40],,,,#,,

# More lines, main results first:
EC50 (PTHR1; [1]) [nM],PTHR1 Activation: Derivative EC50/PTH EC50 (PTHR1),EC50 (PTHR1; [2]) [nM],Compound,Tolerance Pattern of β AA (PTHR1 and PTHR2),EC50 (PTHR2) [nM],PTHR2 Activation: Derivative EC50/PTH EC50 (PTHR2)
10.8 ± 0.47,28.42,> 100,CC[C@H](C)[C@H](NC(=O)[C@@H](CCC(=O)O)CNC(=O)[C@H](CO)NC(=O)[C@@H](NC(=O)[C@@H](N)CO)C(C)C)C(=O)N[C@@H](CCC(N)=O)C(=O)N[C@@H](CC(C)C)C(=O)N[C@@H](CCSC)C(=O)N[C@@H](Cc1c[nH]cn1)C(=O)N[C@@H](CC(N)=O)C(=O)N[C@@H](CC(C)C)C(=O)NCC(=O)N[C@@H](CCCCN)C(=O)N[C@@H](Cc1c[nH]cn1)C(=O)N[C@@H](CC(C)C)C(=O)N[C@@H](CC(N)=O)C(=O)N[C@@H](CO)C(=O)N[C@@H](CCSC)C(=O)N[C@@H](CCC(=O)O)C(=O)N[C@@H](CCCNC(=N)N)C(=O)N[C@H](C(=O)N[C@@H](CCC(=O)O)C(=O)N[C@@H](Cc1c[nH]c2ccccc12)C(=O)N[C@@H](CC(C)C)C(=O)N[C@@H](CCCNC(=N)N)C(=O)N[C@@H](CCCCN)C(=O)N[C@@H](CCCCN)C(=O)N[C@@H](CC(C)C)C(=O)N[C@@H](CCC(N)=O)C(=O)N[C@@H](CC(=O)O)C(=O)N[C@H](C(=O)N[C@@H](Cc1c[nH]cn1)C(=O)N[C@@H](CC(N)=O)C(=O)N[C@@H](Cc1ccccc1)C(N)=O)C(C)C)C(C)C [SEQ. ID. NO: 33] (H-SVS[X4]IQLMHNLGKHLNSMERVEWLRKKLQDVHNF-NH2; N-terminus assumed),,> 100,***
21 ± 2.3,,,CC[C@H](C)[C@H](NC(=O)[C@H](CCC(=O)O)NC(=O)[C@H](CO)NC(=O)[C@@H](NC(=O)[C@@H](N)CO)C(C)C)C(=O)N[C@@H](CCC(N)=O)C(=O)N[C@@H](CC(C)C)C(=O)N[C@@H](CCSC)CC(=O)N[C@@H](Cc1cnc[nH]1)C(=O)N[C@@H](CC(N)=O)C(=O)N[C@@H](CC(C)C)C(=O)NCC(=O)N[C@@H](CCCCN)C(=O)N[C@@H](Cc1cnc[nH]1)C(=O)N[C@@H](CC(C)C)C(=O)N[C@@H](CC(N)=O)C(=O)N[C@@H](CO)C(=O)N[C@@H](CCSC)C(=O)N[C@@H](CCC(=O)O)C(=O)N[C@@H](CCCNC(=N)N)C(=O)N[C@H](C(=O)N[C@@H](CCC(=O)O)C(=O)N[C@@H](Cc1c[nH]c2ccccc12)C(=O)N[C@@H](CC(C)C)C(=O)N[C@@H](CCCNC(=N)N)C(=O)N[C@@H](CCCCN)C(=O)N[C@@H](CCCCN)C(=O)N[C@@H](CC(C)C)C(=O)N[C@@H](CCC(N)=O)C(=O)N[C@@H](CC(=O)O)C(=O)N[C@H](C(=O)N[C@@H](Cc1cnc[nH]1)C(=O)N[C@@H](CC(N)=O)C(=O)N[C@@H](Cc1ccccc1)C(N)=O)C(C)C)C(C)C [SEQ. ID. NO: 45],,> 100,

# Source: US11780901B2, “Analogues of parathyroid hormone (1-34) that function as agonists of the parathyroid hormone receptor-1 and display modified activity profiles” (Wisconsin Alumni Research Foundation, priority 2013, dated 2023)
